{"source": "patent US10766869B2", "about": "“Triazoles for the treatment of demyelinating dieases” (Vertex Pharmaceuticals Incorporated, priority 2015, dated 2020)", "tested_on": "primary rat mixed cortical cells", "assay": "In vitro myelination assay (MBP positive myelin strands, fold myelin pixels above background)", "type": "cell-based", "conditions": "Rattus norvegicus; for fold induction at 1 µM: 1.0 μM compound; for fold induction at 10 µM: 10.0 μM compound", "procedure,_shortened": "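Read-out is total MBP-positive myelin strand pixels per well, detected by custom ridge-tracing software and reported as fold over untreated baseline. Primary P1 rat mixed cortical cells received compound (1.0 or 10.0 μM) for 14 days, with medium half-replaced on days 6 and 10. Standard deviation was taken across all replicates.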", "key": {"[1]": {"conditions": "read-out: Fold myelin pixels above background relative to baseline of no added compound"}, "[2]": {"conditions": "relative to baseline of no added compound, read-out: Fold myelin pixels above background, 1.0 μM"}, "[3]": {"conditions": "relative to baseline of no added compound, read-out: Fold myelin pixels above background, 10.0 μM"}, "[4]": {"conditions": "relative to baseline of no added compound, read-out: Fold myelin pixels above background"}}, "note": "Like-named read-outs stand apart in the source and are kept apart here."}
{"smiles": "Clc1cc(Nc2ncn(-c3ccncn3)n2)cc(N2CC(N3CCOCC3)C2)c1", "note": "[Compound 863, N-[3-chloro-5-(3-morpholinoazetidin-1-yl)phenyl]-1-pyrimidin-4-yl-1,2,4-triazol-3-amine]", "values": [{"measurement": "fold induction at 1 µM", "setting": "[1]", "result": "10 to 100"}, {"measurement": "fold induction at 10 µM", "setting": "[1]", "result": "10 to 100"}]}
{"smiles": "Fc1cc(-n2cnc(Nc3cc(C4CC4)cc(N4CCN(C5COC5)CC4)c3)n2)ccn1", "note": "[Compound 184, N-[3-cyclopropyl-5-[4-(oxetan-3-yl)piperazin-1-yl]phenyl]-1-(2-fluoro-4-pyridyl)-1,2,4-triazol-3-amine]", "values": [{"measurement": "fold induction at 1 µM", "setting": "[2]", "result": "10 to 100"}, {"measurement": "fold induction at 10 µM", "setting": "[3]", "result": "1 to 10"}]}
{"smiles": "Cc1cc(Nc2ncn(-c3cc(F)cc(F)c3)n2)cc(N2CCC3OCCC3C2)c1", "note": "(stereo not shown) [Compound 528, N-[3-(3,3a,4,6,7,7a-hexahydro-2H-furo[3,2-c]pyridin-5-yl)-5-methyl-phenyl]-1-(3,5-difluorophenyl)-1,2,4-triazol-3-amine]", "values": [{"measurement": "fold induction at 1 µM", "setting": "[4]", "result": "100 to 1000"}, {"measurement": "fold induction at 10 µM", "setting": "[4]", "result": "100 to 1000"}]}
{"smiles": "Fc1ccc(-n2cnc(Nc3cc(N4CCOCC4)nc(N4CCOCC4)c3)n2)cc1F", "note": "[Compound 393, N-[1-(3,4-difluorophenyl)-1,2,4-triazol-3-yl]-2,6-dimorpholino-pyridin-4-amine]", "values": [{"measurement": "fold induction at 1 µM", "setting": "[4]", "result": "100 to 1000"}, {"measurement": "fold induction at 10 µM", "setting": "[4]", "result": "≤ 1"}]}
{"smiles": "Cc1cc(Nc2ncn(-c3cc(F)cc(F)c3)n2)cc(N2CC(N3CC4CCC(C3)O4)C2)c1", "note": "[Compound 717, 1-(3,5-difluorophenyl)-N-[3-methyl-5-[3-(8-oxa-3-azabicyclo[3.2.1]octan-3-yl)azetidin-1-yl]phenyl]-1,2,4-triazol-3-amine]", "values": [{"measurement": "fold induction at 1 µM", "setting": "[4]", "result": "1 to 10"}, {"measurement": "fold induction at 10 µM", "setting": "[4]", "result": "10 to 100"}]}
{"smiles": "COCC1CN(c2cc(C)cc(Nc3ncn(-c4cc(F)cc(F)c4)n3)c2)CCO1", "note": "(stereo not shown) [Compound 325, 1-(3,5-difluorophenyl)-N-[3-[2-(methoxymethyl)morpholin-4-yl]-5-methyl-phenyl]-1,2,4-triazol-3-amine]", "values": [{"measurement": "fold induction at 1 µM", "setting": "[2]", "result": "10 to 100"}, {"measurement": "fold induction at 10 µM", "setting": "[3]", "result": "10 to 100"}]}
{"smiles": "Fc1cc(F)cc(-n2cnc(Nc3cc(C(F)(F)F)cc(N4CCN([C@H]5CCOC5)CC4)n3)n2)c1", "note": "(single isomer, unassigned) [Compound 787]", "values": [{"measurement": "fold induction at 1 µM", "setting": "[1]", "result": "1 to 10"}, {"measurement": "fold induction at 10 µM", "setting": "[1]", "result": "10 to 100"}]}
{"smiles": "Cc1cc(Nc2ncn(-c3ccc(F)c(F)c3)n2)cc(OC2CCOC2)c1", "note": "(stereo not shown) [Compound 778, 1-(3,4-difluorophenyl)-N-(3-methyl-5-tetrahydrofuran-3-yloxy-phenyl)-1,2,4-triazol-3-amine]", "values": [{"measurement": "fold induction at 1 µM", "setting": "[4]", "result": "10 to 100"}, {"measurement": "fold induction at 10 µM", "setting": "[4]", "result": "1 to 10"}]}
{"smiles": "Cc1cc(Nc2ncn(-c3cc(F)cc(F)c3)n2)cc([C@@]2(C)CNC(=O)O2)c1", "note": "(single isomer, unassigned) [Compound 679]", "values": [{"measurement": "fold induction at 1 µM", "setting": "[4]", "result": "10 to 100"}, {"measurement": "fold induction at 10 µM", "setting": "[4]", "result": "1 to 10"}]}
{"smiles": "CCc1cc(Nc2ncn(-c3cncc(C)n3)n2)cc(N2CCN(C3COC3)CC2)c1", "note": "[Compound 401, N-[3-ethyl-5-[4-(oxetan-3-yl)piperazin-1-yl]phenyl]-1-(6-methylpyrazin-2-yl)-1,2,4-triazol-3-amine]", "values": [{"measurement": "fold induction at 1 µM", "setting": "[4]", "result": "100 to 1000"}, {"measurement": "fold induction at 10 µM", "setting": "[4]", "result": "100 to 1000"}]}
{"smiles": "CNC(=O)c1cc(Nc2ncn(-c3ccc(F)c(F)c3)n2)nc(N2CCN(C3COC3)CC2)c1", "note": "[Compound 789, 2-[[1-(3,4-difluorophenyl)-1,2,4-triazol-3-yl]amino]-N-methyl-6-[4-(oxetan-3-yl)piperazin-1-yl]pyridine-4-carboxamide]", "values": [{"measurement": "fold induction at 1 µM", "setting": "[1]", "result": "1 to 10"}, {"measurement": "fold induction at 10 µM", "setting": "[1]", "result": "≤ 1"}]}
{"smiles": "Cc1cc(Nc2ncn(-c3cc(F)cc(F)c3)n2)nc(N2CC(N3CCOCC3)C2)c1", "note": "[Compound 537, N-[1-(3,5-difluorophenyl)-1,2,4-triazol-3-yl]-4-methyl-6-(3-morpholinoazetidin-1-yl)pyridin-2-amine]", "values": [{"measurement": "fold induction at 1 µM", "setting": "[4]", "result": "1 to 10"}, {"measurement": "fold induction at 10 µM", "setting": "[4]", "result": "≤ 1"}]}
{"smiles": "CCc1cc(Nc2ncn(-c3cnccn3)n2)cc(N2CCN(C3(C)COC3)CC2)c1", "note": "[Compound 489, N-[3-ethyl-5-[4-(3-methyloxetan-3-yl)piperazin-1-yl]phenyl]-1-pyrazin-2-yl-1,2,4-triazol-3-amine]", "values": [{"measurement": "fold induction at 1 µM", "setting": "[4]", "result": "10 to 100"}, {"measurement": "fold induction at 10 µM", "setting": "[4]", "result": "10 to 100"}]}
{"smiles": "COc1c(F)cc(-n2cnc(Nc3cc(C)cc(N4CC(N5CCOCC5)C4)c3)n2)cc1F", "note": "[Compound 782, 1-(3,5-difluoro-4-methoxy-phenyl)-N-[3-methyl-5-(3-morpholinoazetidin-1-yl)phenyl]-1,2,4-triazol-3-amine]", "values": [{"measurement": "fold induction at 1 µM", "setting": "[4]", "result": "10 to 100"}, {"measurement": "fold induction at 10 µM", "setting": "[4]", "result": "1 to 10"}]}
{"smiles": "Cc1cc(Nc2ncn(-c3ccccc3)n2)c(F)c(OC2CCOC2)c1", "note": "(stereo not shown) [Compound 907, N-(2-fluoro-5-methyl-3-tetrahydrofuran-3-yloxy-phenyl)-1-phenyl-1,2,4-triazol-3-amine]", "values": [{"measurement": "fold induction at 1 µM", "setting": "[1]", "result": "10 to 100"}, {"measurement": "fold induction at 10 µM", "setting": "[1]", "result": "100 to 1000"}]}
{"smiles": "Cc1cc(Nc2ncn(-c3cccc(C(F)F)c3)n2)nc(N2CC(N3CCOCC3)C2)c1", "note": "[Compound 768, N-[1-[3-(difluoromethyl)phenyl]-1,2,4-triazol-3-yl]-4-methyl-6-(3-morpholinoazetidin-1-yl)pyridin-2-amine]", "values": [{"measurement": "fold induction at 1 µM", "setting": "[4]", "result": "≤ 1"}, {"measurement": "fold induction at 10 µM", "setting": "[4]", "result": "1 to 10"}]}
{"smiles": "COc1cc(Nc2ncn(-c3cccc(C(F)(F)F)c3)n2)cc(N2CCN(C3COC3)CC2)c1", "note": "[Compound 662, N-[3-methoxy-5-[4-(oxetan-3-yl)piperazin-1-yl]phenyl]-1-[3-(trifluoromethyl)phenyl]-1,2,4-triazol-3-amine]", "values": [{"measurement": "fold induction at 1 µM", "setting": "[4]", "result": "10 to 100"}, {"measurement": "fold induction at 10 µM", "setting": "[4]", "result": "≤ 1"}]}
{"smiles": "Cc1cc(Nc2ncn(-c3cc(F)cc(F)c3)n2)cc(NC2CC(N3CCOCC3)C2)c1", "note": "(stereo not shown) [Compound 797, N3-[1-(3,5-difluorophenyl)-1,2,4-triazol-3-yl]-5-methyl-N1-(3-morpholinocyclobutyl)benzene-1,3-diamine]", "values": [{"measurement": "fold induction at 1 µM", "setting": "[1]", "result": "1 to 10"}, {"measurement": "fold induction at 10 µM", "setting": "[1]", "result": "≤ 1"}]}
{"smiles": "CCn1cnc(Nc2cc(C)cc(Nc3ncn(-c4ccccc4)n3)c2)n1", "note": "[Compound 604, N1-(1-ethyl-1,2,4-triazol-3-yl)-5-methyl-N3-(1-phenyl-1,2,4-triazol-3-yl)benzene-1,3-diamine]", "values": [{"measurement": "fold induction at 1 µM", "setting": "[4]", "result": "10 to 100"}, {"measurement": "fold induction at 10 µM", "setting": "[4]", "result": "≤ 1"}]}
{"smiles": "Cc1cc(Nc2ncn(-c3cc(F)cc(F)c3)n2)cc(N2CCN(C)C(CO)C2)c1", "note": "(stereo not shown) [Compound 53, [4-[3-[[1-(3,5-difluorophenyl)-1,2,4-triazol-3-yl]amino]-5-methyl-phenyl]-1-methyl-piperazin-2-yl]methanol]", "values": [{"measurement": "fold induction at 1 µM", "setting": "[2]", "result": "10 to 100"}, {"measurement": "fold induction at 10 µM", "setting": "[3]", "result": "≤ 1"}]}
{"smiles": "Cc1cc(Nc2ncn(-c3ccccc3)n2)cc(Nc2ncc(C)s2)c1", "note": "[Compound 588, 5-methyl-N1-(5-methylthiazol-2-yl)-N3-(1-phenyl-1,2,4-triazol-3-yl)benzene-1,3-diamine]", "values": [{"measurement": "fold induction at 1 µM", "setting": "[4]", "result": "10 to 100"}, {"measurement": "fold induction at 10 µM", "setting": "[4]", "result": "≤ 1"}]}
{"smiles": "Cc1cc(Nc2ncn(-c3cc(F)cc(F)c3)n2)cc(C(=O)N2CCN(C3COC3)CC2)c1", "note": "[Compound 864, [3-[[1-(3,5-difluorophenyl)-1,2,4-triazol-3-yl]amino]-5-methyl-phenyl]-[4-(oxetan-3-yl)piperazin-1-yl]methanone]", "values": [{"measurement": "fold induction at 1 µM", "setting": "[1]", "result": "10 to 100"}, {"measurement": "fold induction at 10 µM", "setting": "[1]", "result": "10 to 100"}]}
{"smiles": "Cc1cc(Nc2ncn(-c3ccccc3)n2)cc(N2CC3(C2)CN(C(C)C)C3)c1", "note": "[Compound 1034, N-[3-(2-isopropyl-2,6-diazaspiro[3.3]heptan-6-yl)-5-methyl-phenyl]-1-phenyl-1,2,4-triazol-3-amine]", "values": [{"measurement": "fold induction at 1 µM", "setting": "[1]", "result": "10 to 100"}, {"measurement": "fold induction at 10 µM", "setting": "[1]", "result": "≤ 1"}]}
